Source: publication PMC12461739, “Multi-targeted azacoumarin–cyanocinnamate hybrids induce G2/M arrest and apoptosis via tubulin, and COX-2/VEGFR modulation: insights from in vitro mechanistic basis and in vivo validation” (RSC Medicinal Chemistry, 2025)
Where two headings read alike, the source gives them in different places.

Legend:
MDA-MB 231 cells = assay: MTT antiproliferative assay, MDA-MB 231; assay type: cell-based, human; conditions: for IC50: Homo sapiens, MDA-MB-231, 48 h, MTT, 48 h treatment, read-out: IC50, antiproliferative activity toward MDA-MB 231
Description: (§1) The cytotoxic effects of the synthesized compounds were evaluated using the MTT assay. MCF-7, MDA-MB 231 (human breast cancer), and MCF-10A (non-tumorigenic breast epithelial) cells were seeded (1–3 × 10^4 cells per well) and incubated for 24 hours at 37 °C in a humidified atmosphere containing 5% CO2.[74] Following incubation, cells were treated with serial dilutions of the test compounds prepared in DMSO. The final concentration of DMSO in all wells, including controls, was maintained below 0.5% v/v to avoid solvent-related cytotoxicity. Doxorubicin was used as a positive control for comparison of antiproliferative activity. Following 48 hours of treatment, the culture medium was gently removed, and each well received 20 μL of MTT reagent (5 mg mL^−1 in phosphate-buffered saline). The plates were incubated at 37 °C for 4 hours to facilitate the enzymatic reduction of MTT into formazan by metabolically active cells. After incubation, the solution was discarded, and 100 μL of dimethyl sulfoxide was added. The absorbance of each well was measured at 570 nm using a microplate spectrophotometer. Cell viability was determined by comparing absorbance values to those of the untreated controls and expressed as a percentage. GraphPad Prism software was used to plot dose–response curves and calculate IC50 values.

MCF-7 cells = assay: MTT antiproliferative assay, MCF-7; assay type: cell-based, human; conditions: for IC50: MTT, 48 h treatment, read-out: IC50, antiproliferative activity toward MCF-7; for fold reduction of cytotoxic activity after acetylation of the hydroxyl group: MCF-7, vs parent compound (7 or 6a)
Description: as §1

[1] = FRAP (ferric reducing antioxidant power) assay; conditions: 37 °C, 60 min
Description: The resulting Fe^2+ forms a colored complex with the FRAP chromogenic probe, which can be quantitatively measured. The reaction mixture was prepared by combining FRAP assay buffer, FRAP probe, and FeCl3 solution as per the manufacturer's protocol. […] Absorbance was measured at 594 nm using a microplate reader after incubation at 37 °C for 60 minutes. Antioxidant activity was determined by comparing the absorbance of the samples to a standard curve generated using known concentrations of the ferrous standard provided in the kit.

MCF-10A cells = assay: MTT cytotoxicity assay, MCF-10A; assay type: cell-based, human
Description: as §1, with “MCF-7, MDA-MB 231 (human breast cancer), and MCF-10A (non-tumorigenic breast epithelial) cells were seeded (1–3 × 10^4 cells per well) and incubated for 24 hours at 37 °C in a humidified atmosphere containing 5% CO2.[74]” left out

[2] = MTT cytotoxicity assay, MCF-10A; assay type: cell-based, human; conditions: human, MCF-10A non-tumorigenic breast epithelial cells, MTT, 48 h treatment, non-tumorigenic breast epithelial cells; read-out: IC50, cytotoxicity toward MCF-10A
Description: as §1, with “MCF-7, MDA-MB 231 (human breast cancer), and MCF-10A (non-tumorigenic breast epithelial) cells were seeded (1–3 × 10^4 cells per well) and incubated for 24 hours at 37 °C in a humidified atmosphere containing 5% CO2.[74]” left out

CCOC(=O)/C(C#N)=C/c1ccc(Oc2c(C)c3cc(Br)c(O)c(Br)c3[nH]c2=O)c(OC)c1 [Compound 6a, ethyl (E)-2-cyano-3-(4-((6,8-dibromo-7-hydroxy-4-methyl-2-oxo-1,2-dihydroquinolin-3-yl)oxy)-3-methoxyphenyl)acrylate]
IC50 (MDA-MB 231 cells): 19.6 ± 1.72 µM | IC50 (MCF-7 cells; Homo sapiens, MCF7, 48 h): 26.6 ± 1.56 µM | IC50 (MCF-7 cells): 26.6 ± 1.56 µM

CCOC(=O)/C(C#N)=C/c1cc(Br)c(Oc2c(C)c3cc(Br)c(O)c(Br)c3[nH]c2=O)c(Br)c1 [Compound 6b, ethyl (E)-2-cyano-3-(3,5-dibromo-4-((6,8-dibromo-7-hydroxy-4-methyl-2-oxo-1,2-dihydroquinolin-3-yl)oxy)phenyl)acrylate]
IC50 (MDA-MB 231 cells): 31.1 ± 1.87 µM | fold improvement in cytotoxicity in MDA-MB-231 compared to MCF-7 (MDA-MB 231 cells; MDA-MB-231 vs MCF-7): ~3.6 fold | IC50 (MCF-7 cells; Homo sapiens, MCF7, 48 h): 112 ± 6.57 µM | IC50 (MCF-7 cells): 112 ± 6.57 µM

CCOC(=O)/C(C#N)=C/c1ccc(Oc2c(C)c3cc(Br)c(OC(C)=O)c(Br)c3[nH]c2=O)cc1 [Compound 8, ethyl (E)-3-(4-((7-acetoxy-6,8-dibromo-4-methyl-2-oxo-1,2-dihydroquinolin-3-yl)oxy)phenyl)-2-cyanoacrylate]
IC50 (MDA-MB 231 cells): 26.9 ± 0.79 µM | IC50 (MCF-7 cells; Homo sapiens, MCF7, 48 h): 17.8 ± 1.05 µM | fold reduction of cytotoxic activity after acetylation of the hydroxyl group (MCF-7 cells): 2.3 fold | IC50 (MCF-7 cells): 17.8 ± 1.05 µM

CCOC(=O)/C(C#N)=C/c1ccc(Oc2c(C)c3cc(Br)c(OC(C)=O)c(Br)c3[nH]c2=O)c(OC)c1 [Compound 9, ethyl (E)-3-(4-((7-acetoxy-6,8-dibromo-4-methyl-2-oxo-1,2-dihydroquinolin-3-yl)oxy)-3-methoxyphenyl)-2-cyanoacrylate]
IC50 (MDA-MB 231 cells): 44.2 ± 2.96 µM | IC50 (MCF-7 cells; Homo sapiens, MCF7, 48 h): 33.4 ± 1.96 µM | fold reduction of cytotoxic activity after acetylation of the hydroxyl group (MCF-7 cells): 1.25 fold | IC50 (MCF-7 cells): 33.4 ± 1.96 µM

O=C1O[C@H]([C@@H](O)CO)C(O)=C1O [ascorbic acid, reference compound]
IC50 [1]: 110 ± 4.21 µM

COc1cccc2c1C(=O)c1c(O)c3c(c(O)c1C2=O)C[C@@](O)(C(=O)CO)C[C@@H]3O[C@H]1C[C@H](N)[C@H](O)[C@H](C)O1 [doxorubicin, reference compound]
selectivity index toward breast cancer cells (MCF-10A cells; MCF-10A vs MCF-7 / MDA-MB 231): 1.3 | IC50 (MCF-10A cells; MTT, 48 h treatment, non-tumorigenic breast epithelial cells, read-out: IC50, cytotoxicity toward MCF-10A): 16.2 ± 0.55 µM | IC50 at 48 h [2]: 16.2 ± 0.55 µM | IC50 (MDA-MB 231 cells): 8.4 ± 0.61 µM | IC50 (MCF-7 cells; Homo sapiens, MCF7, 48 h): 12.6 ± 0.61 µM
